Like-named read-outs stand apart in the source and are kept apart here.
Key:
albumin [1] = test: Relaxivity in the presence and absence of albumin at 1.5 T; assay type: physicochemical
Procedure: To characterize the efficacy of an activatable contrast agent, the relaxivity enhancement ratio, that is the ratio of the activated relaxivity to the inactivated relaxivity can be defined. For Vasovist at a magnetic field strength equal to 1.5 T, the relaxivities in the presence and absence of albumin are 19 s^−1 mM^−1 and 5.2 s^−1 mM^−1 respectively, resulting in a relaxivity enhancement ratio of 3.7. From FIG. 3 it can be seen that the Vasovist relaxivity enhancement ratio peaks in the vicinity of a magnetic filed strength equal to 0.5 T, and falls quickly for magnetic field strengths above that value.
Defining R1′ and r1′ as the partial derivatives of R1 and r1 with respect to the polarizing magnetic field B0 results in R1′=R1Unenhanced′+r1′*[CA]. Applying the approximation that R1′Unenhanced≈0 for magnetic fields above 1.0 T, results in the expression R1′≈r1′*[CA]. […] For Vasovist, the relaxivity slope enhancement ratio (ratio of activated r1′ to inactivated r1′) is 90 at a magnetic field strength equal to 1.5 T. This represents a 25-fold increase over the absolute relaxivity enhancement ratio of 3.7 mentioned above. The high specificity of DREMR enhancement is not specific to Vasovist but applies to any T1 contrast agent that undergoes binding to large molecules (15).

rabbit serum albumin = molecular target: T1, rabbit serum albumin (Oryctolagus cuniculus, UniProt P49065); test: MRI phantom imaging (T1 weighted and DREMR) with and without rabbit serum albumin; conditions: 1.5 T, 21° C.
T1 construct: purchased Sigma-Aldrich batch 104K7560 (catalogue number not given)
T1 sequence (P49065 25-608): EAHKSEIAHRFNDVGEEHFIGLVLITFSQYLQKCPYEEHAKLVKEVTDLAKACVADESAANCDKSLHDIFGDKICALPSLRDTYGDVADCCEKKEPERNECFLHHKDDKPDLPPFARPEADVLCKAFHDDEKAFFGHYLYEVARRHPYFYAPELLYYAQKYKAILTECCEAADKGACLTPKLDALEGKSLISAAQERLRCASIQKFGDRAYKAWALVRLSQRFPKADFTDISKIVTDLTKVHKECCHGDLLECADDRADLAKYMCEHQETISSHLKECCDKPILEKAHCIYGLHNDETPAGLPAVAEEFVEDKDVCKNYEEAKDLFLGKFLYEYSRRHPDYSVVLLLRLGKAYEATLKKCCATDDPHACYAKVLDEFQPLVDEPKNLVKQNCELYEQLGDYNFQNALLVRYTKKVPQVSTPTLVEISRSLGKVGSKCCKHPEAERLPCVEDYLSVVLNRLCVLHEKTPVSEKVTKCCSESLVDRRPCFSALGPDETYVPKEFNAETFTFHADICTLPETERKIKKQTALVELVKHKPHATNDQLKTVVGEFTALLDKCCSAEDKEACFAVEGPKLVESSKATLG
Procedure: The particular choice of agent/protein pair was based by the availability of the contrast agent and its well-documented relaxivity mechanisms, rather than any specific clinical or research interest in albumin.
An MRI phantom (see FIG. 5a) was constructed that held two columns of six rows of glass tubes; each tube 3 cm in length with a 0.4 mL capacity. The sample tubes in the left column were filled with 0.01 M phosphate buffered saline (PBS) (NaCl 0.138M, KCl 0.0027M, pH 7.4 at 25° C.). The right column of sample tubes held a solute of rabbit serum albumin (Sigma-Aldrich, batch 104K7560, agarose gel electrophoresis) in PBS. The albumin, purchased as a lyophilized powder, was dissolved in PBS, at a 4.5% weight to volume ratio resulting in ˜0.67 mM concentration. Vasovist (0.25 mmol/mL) was added in equal concentration to both columns to achieve sample concentrations of 0, 10, 20, 40, 80 and 160 μM as a function of descending rows.
Imaging was performed on a Sigma LX 1.5 T clinical MRI machine (General Electric Healthcare), equipped with an actively shielded electromagnetic ΔB insert (19). […]

human serum albumin = human serum albumin (Homo sapiens, UniProt P02768); conditions: cited from earlier work; for increase of relaxivity of the bound form: in the presence of human serum albumin
human serum albumin, sequence (P02768 25-609): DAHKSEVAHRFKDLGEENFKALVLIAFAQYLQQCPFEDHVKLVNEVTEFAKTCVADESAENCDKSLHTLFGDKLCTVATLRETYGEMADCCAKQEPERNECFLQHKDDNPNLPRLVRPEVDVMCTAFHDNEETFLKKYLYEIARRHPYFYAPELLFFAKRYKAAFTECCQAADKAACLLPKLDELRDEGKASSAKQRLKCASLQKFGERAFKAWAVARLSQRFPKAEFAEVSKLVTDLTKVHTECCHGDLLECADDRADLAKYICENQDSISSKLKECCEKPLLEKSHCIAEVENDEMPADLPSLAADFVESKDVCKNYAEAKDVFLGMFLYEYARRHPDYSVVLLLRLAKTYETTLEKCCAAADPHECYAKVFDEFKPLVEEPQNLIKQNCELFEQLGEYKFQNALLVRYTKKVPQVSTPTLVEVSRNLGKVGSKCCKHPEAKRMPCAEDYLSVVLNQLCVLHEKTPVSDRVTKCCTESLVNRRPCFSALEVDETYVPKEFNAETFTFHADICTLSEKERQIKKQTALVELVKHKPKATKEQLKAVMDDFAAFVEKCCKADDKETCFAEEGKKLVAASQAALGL

albumin [2] = conditions: 1.5 T, cited from earlier work
myeloperoxidase = molecular target: T2, myeloperoxidase (Homo sapiens, UniProt P05164); conditions: in the presence of active myeloperoxidase; cited from earlier work
T2 sequence (P05164 49-745): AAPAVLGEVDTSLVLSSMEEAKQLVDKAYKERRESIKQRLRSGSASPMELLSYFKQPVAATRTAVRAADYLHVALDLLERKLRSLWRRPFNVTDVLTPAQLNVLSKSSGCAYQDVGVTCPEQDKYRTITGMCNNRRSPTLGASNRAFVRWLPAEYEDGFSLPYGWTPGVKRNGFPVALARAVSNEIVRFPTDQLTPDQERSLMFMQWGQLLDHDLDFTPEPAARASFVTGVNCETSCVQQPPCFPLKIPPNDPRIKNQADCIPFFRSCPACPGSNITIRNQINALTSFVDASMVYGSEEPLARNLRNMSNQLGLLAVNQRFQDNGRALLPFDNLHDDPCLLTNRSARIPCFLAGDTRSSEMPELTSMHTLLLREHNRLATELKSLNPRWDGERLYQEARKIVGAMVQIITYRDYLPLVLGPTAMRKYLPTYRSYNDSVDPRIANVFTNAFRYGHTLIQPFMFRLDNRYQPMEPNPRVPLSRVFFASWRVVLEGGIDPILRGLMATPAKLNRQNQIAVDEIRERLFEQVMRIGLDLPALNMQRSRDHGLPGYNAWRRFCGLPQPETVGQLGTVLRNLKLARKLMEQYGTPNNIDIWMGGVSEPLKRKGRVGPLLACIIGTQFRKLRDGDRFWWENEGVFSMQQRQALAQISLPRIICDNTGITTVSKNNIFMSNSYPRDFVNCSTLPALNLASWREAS

increase of relaxivity slope enhancement ratio over absolute relaxivity enhancement ratio (albumin [1]; 1.5 T) | relaxivity enhancement ratio (activated relaxivity to inactivated relaxivity) (albumin [1]; 1.5 T) | relaxivity slope enhancement ratio (activated r1′ to inactivated r1′) (albumin [1]; 1.5 T) | magnetic field strength at which the relaxivity enhancement ratio peaks (albumin [1]; from FIG. 3) | SMILES | DREMR image intensity, albumin samples (rabbit serum albumin; 4.5% rabbit serum albumin in PBS, ±70 mT ΔB) | standard T1 weighted spin-echo image intensity (rabbit serum albumin; albumin solution and PBS samples, 0-160 μM) | binding to human serum albumin (human serum albumin) | increase of relaxivity of the bound form (human serum albumin; 30 Mhz) | increase of relaxivity of the bound form (human serum albumin; 60 MHz) | relaxivity (albumin [2]; absence of albumin) | relaxivity (albumin [2]; presence of albumin) | relaxivity change on conversion to oligomeric form (myeloperoxidase)
25 fold | 3.7 | 90 | ~0.5 T | O=C([O-])CN(CCN(CC(=O)[O-])CC(COP(=O)([O-])OC1CCC(c2ccccc2)(c2ccccc2)CC1)N(CC(=O)[O-])CC(=O)[O-])CC(=O)[O-].[Gd+3].[Na+].[Na+].[Na+] (stereo not drawn) [Vasovist, Gadofosveset trisodium] | continued to demonstrate dependence on Vasovist concentration | demonstrated significant dependence on Vasovist concentration | strong non-covalent binding | approximately an order of magnitude | approximately four-fold | 5.2 s⁻¹ mM⁻¹ | 19 s⁻¹ mM⁻¹ | 
 |  |  |  | O=C([O-])CN(CCN(CC(=O)[O-])CC(=O)NCCc1c[nH]c2ccc(O)cc12)CCN(CC(=O)[O-])CC(=O)NCCc1c[nH]c2ccc(O)cc12.[Gd+3] [bis-5-HT-DTPA(Gd)] |  |  |  |  |  |  |  | enhanced relaxivity
